# Experiment: Valia-Chien diffusion cell, trans-membrane diffusion of RhoB
# Assay type: in vitro ADME
# Description: A Valia-Chien cell apparatus separated by an artificial barrier membrane was used to compare the in vitro drug delivery kinetics of the small molecule Rhodamine B delivered via P407 and saline solution, both with and without perforations. The applied methods for measuring trans-membrane diffusion were adapted from the American Association of Pharmaceutical Scientists as well as the Federal Drug Administration recommendations for in vitro percutaneous absorption rate studies (EPA, Recommended Protocol For In Vitro Percutaneous Absorption Rate Studies, Federal Register Notices, 61(65):14773-14778, 1996. Agency Docket: OPPTS-42186A.)
# P407 powder (Spectrum Chemical, Gardena, CA) was mixed with demineralized water and RhoB to create a 0.1 mM RhoB solution in 18% P407 by weight. The resulting mixture was stirred at room temperature and kept overnight in a refrigerator at 3 to 4° C. to facilitate dissolution of the P407 powder. At the chosen P407 concentration, the mixture transitioned into gel upon placement within the room-temperature testing apparatus.
# Diffusion of RhoB through an artificial membrane barrier was performed using 9 mm clear unjacketed Valia-Chien diffusion cells (PermeGear Inc., Hellertown, PA) with 5 mL volumes and flat-ground joints. […] The Valia-Chien diffusion cells 800 were arranged horizontally, mitigating the effects of gravity on particle movement and allowing for active stirring of both the donor 810 and receptor compartments 820 by magnetic mini-stirrers 840 (HI 190M-1, Hanna Instruments, Woonsocket, RI). A 3D-printed adapter 850 was used as a conduit between the chambers 810, 820.
# The donor chamber 810 was filled with 5.0 mL volumes of: (A) 0.1 mM RhoB in PBS or (B) 0.1 mM RhoB in 18% P407. An additional sample of donor solution was reserved for the calibration of fluorescence detection, as detailed below. Active stirring of the donor chamber 810 was performed for experiments utilizing PBS, but not those utilizing gelified P407. Initial filling of the donor chamber marked time zero for each experiment.
# The receptor chamber 820 was filled with 5.0 mL of PBS prepared by dissolving 9.6 g of Dulbecco's Phosphate Buffered Saline powder (Sigma-Aldrich) in 1.0 L deionized water. An Eppendorf micropipette was used to withdraw 75 μL of fluid from the receptor chamber every 15 minutes, from 0 min to 165 min, for a total of 12 samples. The collected samples were placed in individual wells of a 96-well plate for further analysis. The withdrawn solution was replaced with 75 μL of PBS to prevent advection of fluid within the system. […] Active stirring of the receptor chamber 820 was performed for all experiments.
# Whatman™ Grade 2 Qualitative Filter Paper with diameter 5.5 cm, thickness 190 μm and pore size 8.0 μm (Whatman Limited, England) was used as an artificial membrane 830 barrier separating the donor and receptor chambers. […] Using an artificial barrier controlled for pore size as well as membrane thickness. The filter paper was cut to fit a custom 3D-printed diffusion cell adapter, which was circumferentially sealed with general-purpose epoxy. Teflon tape was used to prevent leakage between the 3D-printed adapter and the joint, which were secured with a standard Valia-Chien cell clamp. The filter paper was equilibrated in PBS solution for 30 min prior to any contact with donor substance. […]
smiles,measurement,setting,value
"CCN(CC)c1ccc2c(-c3ccccc3C(=O)O)c3ccc(=[N+](CC)CC)cc-3oc2c1.[Cl-] [RhoB, Rhodamine B]",permeance,"RhoB in P407, membrane with one 200 μm perforation",3.0×10^−7 m s^−1
same,permeance,"RhoB in P407, unperforated artificial membrane",2.2×10^−7 m s^−1
same,permeance,"RhoB in PBS, unperforated artificial membrane",3.04×10^−6 m s^−1
same,diffusion rate in P407 relative to saline (times lower),after the initial burst release,more than 10 times
same,increase in measured permeance,"saline as solvent, membranes with up to four 100 μm perforations vs unperforated",1.5 fold

# Source: patent US12263066B2, “Apparatuses, systems and methods for perforating and aspirating inner ear” (priority 2018, dated 2025)
